1 compound from US20140243403A1, “TREATING COLORECTAL, PANCREATIC, AND LUNG CANCER” (The General Hospital Corporation, priority 2011, published 2014) can be followed below.

The test system of one test is COLO-205 cells. Briefly: Cellular proliferation and viability, CRC cell line panel. Conditions: KRAS WT, BRAF V600E, APC del, CTNNB1 WT, 3 days post-treatment. Format: cell-based, human. As for the experimental part: (§1) (A) IC50 values (μM) for effects on cellular proliferation and viability with the TAK1 kinase inhibitor 5z-7-oxozeaenol in a panel of colon cancer cell lines that have been genotyped as KRAS mutant (KRAS-independent—circles or KRAS-dependent—squares), BRAF mutant (triangles) or wild-type for both KRAS and BRAF (OTHER—diamonds). Effects on growth were measured 3 days post-treatment. Data are represented as the mean of 3 independent experiments and error bars indicate the median±interquartile range. *denotes p<0.00001; n.s.—not significant.
(§2) To further validate TAK1 as a candidate therapeutic target in this context, a potent and selective TAK1 kinase inhibitor, 5Z-7-oxozeaenol (Rawlins et al., 1999), was used. Sensitivity to 5Z-7-oxozeaenol was tested in a panel of 47 colon cancer cell lines with various genotypes (FIGS. 3A and 9A). KRAS and BRAF genotypes were either procured from the Sanger Institute's Catalog of Somatic Mutations (COSMIC) or determined by targeted resequencing (Table 2). KRAS mutation status was determined as described above; the same methods were used to determine the mutation states of BRAF. BRAF exon15 was sequenced with TCATAATGCTTGCTCTGATAGGA (forward; SEQ ID NO:3) and GGCCAAAAATTTAATCAGTGG (reverse; SEQ ID NO:4).

The test system of another test is HCC56 cells. The description is as above. Conditions: KRAS G12V, BRAF WT, 3 days post-treatment. Type of test: cell-based, human. As for the experimental part: as §1, §2
The next test has as its system SW1463 cells. The test is described as above. Conditions: KRAS G12C, BRAF WT, APC del, CTNNB1 WT, 3 days post-treatment. Type of test: cell-based, human. As for the experimental part:
as §1, §2

A further test relates to RKO cells. The test is described as above. To be noted: KRAS WT, BRAF V600E, APC del, CTNNB1 WT, 3 days post-treatment. Format: cell-based, human. As for the experimental part:
as §1, §2

Another test relates to CaR-1 cells. The test is described as above. Format: cell-based, human. To be noted: KRAS WT, BRAF WT, 3 days post-treatment. As for the experimental part:
as §1, §2

For a further test, the system named is OUMS-23 cells. The test is described as above. Format: cell-based, human. To be noted: KRAS WT, BRAF WT, 3 days post-treatment. As for the experimental part: as §1, §2
Another test relates to SW837 cells. The test is described as above. To be noted: KRAS G12C, BRAF WT, APC del, CTNNB1 WT, 3 days post-treatment. Format: cell-based, human. As for the experimental part: as §1, §2
In another test the test system is MDST8 cells. The test is described as above. Format: cell-based, human. Conditions: KRAS WT, BRAF V600K, APC nd, CTNNB1 WT, 3 days post-treatment. As for the experimental part: as §1, §2
In a further test the test system is HCT-15 cells. Described as above. Format: cell-based, human. Conditions: KRAS G13D, BRAF WT, APC del, CTNNB1 WT, 3 days post-treatment. As for the experimental part:
as §1, §2

The test system of another test is CL-34 cells. The description is as above. Format: cell-based, human. Conditions: KRAS WT, BRAF V600E, 3 days post-treatment. As for the experimental part:
as §1, §2

For another test, the system named is HT115 cells. The test is described as above. Format: cell-based, human. Conditions: KRAS WT, BRAF WT, APC WT, CTNNB1 WT, 3 days post-treatment. As for the experimental part: as §1, §2
Another test relates to Caco-2 cells. The description is as above. Conditions: KRAS WT, BRAF V600E, CTNNB1 WT, 3 days post-treatment. Type of test: cell-based, human. As for the experimental part: as §1, §2
A further test relates to RCM-1 cells. Described as above. Type of test: cell-based, human. Conditions: KRAS G12V (KRAS-dependent), BRAF WT, APC del, CTNNB1 WT, 3 days post-treatment. As for the experimental part:
as §1, §2

For another test, the system named is WiDR cells. Described as above. Type of test: cell-based, human. Conditions: KRAS WT, BRAF V600E, APC del, CTNNB1 WT, 3 days post-treatment. As for the experimental part:
as §1, §2

The test system of a further test is SW620 cells. The description is as above. Format: cell-based, human. To be noted: KRAS G12V (KRAS-dependent), BRAF WT, APC del, CTNNB1 WT, 3 days post-treatment. As for the experimental part: as §1, §2
The subject of the next test is SKCO1 cells. The test is described as above. Conditions: KRAS G12V (KRAS-dependent), BRAF WT, APC del, CTNNB1 WT, 3 days post-treatment. Format: cell-based, human. As for the experimental part:
as §1, §2

The subject of another test is CL-40 cells. The test is described as above. Type of test: cell-based, human. To be noted: KRAS G12D (KRAS-dependent), BRAF WT, 3 days post-treatment. As for the experimental part:
as §1, §2

The test system of the next test is HT29 cells. The test is described as above. Format: cell-based, human. Conditions: KRAS WT, BRAF V600E, APC del, CTNNB1 WT, 3 days post-treatment. As for the experimental part:
as §1, §2

In another test the test system is CCK-81 cells. The test is described as above. Type of test: cell-based, human. To be noted: KRAS WT, BRAF WT, 3 days post-treatment. As for the experimental part:
as §1, §2

Another test concerns SW948 cells. The test is described as above. Type of test: cell-based, human. Conditions: KRAS Q61L, BRAF WT, APC del, CTNNB1 WT, 3 days post-treatment. As for the experimental part:
as §1, §2

Test [1] relates to HCT8 and SW837 (KRAS-independent) xenografted tumors. Put plainly: Subcutaneous xenografted tumors, KRAS-independent. Format: in vivo, NOD/SCID mice. To be noted: 15 mg/kg daily intraperitoneal. As for the experimental part: (C) TAK1 inhibition in mice with xenografted human tumors derived from the HCT8/SW837 (KRAS-independent) and SK-CO-1/SW620 (KRAS-dependent) cell lines. Cells expressing firefly luciferase were injected subcutaneously into the flanks of […]. Tumors are shown as imaged by IVIS detection of luminescence counts (in photons/sec) following 14 days of tumor growth followed by 6 days of treatment with either 15 mg/kg 5z-7-oxozeaenol or vehicle ([…] in arachis oil), IP delivery q.d. Quantitation of tumor volume (mm^3) is plotted on the right. Tumor volume data are represented as the mean of 4 tumors in 2 mice for each group+/−SEM.
To validate the efficacy of 5Z-7-oxozeaenol in vivo, subcutaneous xenografted tumors were generated in NOD/SCID mice using four representative KRAS mutant cell lines: HCT8 and SW837 (KRAS-independent), and SK-CO-1 and SW620 (KRAS-dependent). Human colorectal cancer tumor cells were trypsinized and resuspended as single cell suspensions at 3×10^7 cells per ml in PBS. 100 μL (3×10^6 cells total) of this suspension were injected into opposite left and right flanks of NOD/SCID mice. All mice were housed in a pathogen-free environment. Tumor size was monitored daily and once tumor volume had reached approximately 200 mm^3, treatment with 5Z-7-oxozeaenol was initiated (7 to 14 days post-implantation). Mice were injected daily with 15 mg/kg 5Z-7-oxozeaenol. […]

For orientation: IC50 means the point on the concentration scale where inhibition reaches its midpoint. The low end stands for greater potency in that assay, the high end for weaker potency in that assay.

Consider `COc1cc(O)c2c(c1)/C=C/C[C@H](O)[C@H](O)C(=O)/C=C\C[C@H](C)OC2=O` [5Z-7-oxozeaenol], for which the IC50 in the test with COLO-205 cells was found to be 1300 nM; with HCC56 cells it was 2340 nM; in the test with SW1463 cells, 2420 nM; in the test with RKO cells, 1100 nM; in the test on CaR-1 cells it was 6080 nM; with OUMS-23 cells, 48400 nM. Further, the IC50 with SW837 cells came out at 5950 nM; in the test with MDST8 cells, 226 nM; in the test on HCT-15 cells it was 8200 nM; with CL-34 cells, 489 nM; in the test with HT115 cells, 1330 nM; with Caco-2 cells it was 1440 nM. For the same compound, the IC50 in the test with RCM-1 cells amounted to 277 nM; with WiDR cells, 2480 nM; with SW620 cells it was 93 nM; in the test on SKCO1 cells, 26 nM; in the test on CL-40 cells, 482 nM; with HT29 cells, 7880 nM. Moreover, the values for the IC50 with CCK-81 cells and with SW948 cells were 412 nM and 2320 nM, respectively. Also, the “tumor response (imaging, tumor volume)” value in test [1] is “no significant response”.
